Measurements as given in patent US10266550B2, “Bacterial topoisomerase I inhibitors with antibacterial activity” (The Florida International University Board of Trustees, priority 2016, dated 2019).
Values after ≈ are worked out from the molar mass of the structure shown. Read-outs that look alike come from different tables or passages of the source.

Key:
[1] = molecular target: E. coli topoisomerase I (Escherichia coli (strain K12), UniProt P06612); assay: biochemical; type: biochemical; details: for PIC50 (pIC50 = −log IC50): experimental, converted from IC50
Method: (§1) Recombinant E. coli topoisomerase I and gyrase expressed in E. coli were purified as described previously.
E. coli Topoisomerase I Relaxation Activity Inhibition Assay
The relaxation activity of E. coli topoisomerase I was assayed in a buffer containing 10 mM Tris-HCl, pH 8.0, 50 mM NaCl, 0.1 mg/mL gelatin, and 0.5 mM MgCl2. Half microliter from the appropriate stock solutions of compounds dissolved in the solvent (DMSO) or the solvent alone (control) was mixed with 9.5 μL of the reaction buffer containing 10 ng of enzyme before the addition of 10 μL of reaction buffer containing 200 ng of supercoiled pBAD/Thio plasmid DNA purified by cesium chloride gradient as substrate. Following incubation at 37° C. for 30 min, the reactions were terminated by the addition of 4 μL of a stop buffer (50% glycerol, 50 mM EDTA, and 0.5% (v/v) bromophenol blue), and analyzed by agarose gel electrophoresis. The gels were stained in ethidium bromide and photographed under UV light.

[2] = system: E. coli Imp4213 (BAS3023); assay: MIC, microdilution in Mueller-Hinton Broth; type: cell-based; details: for Whole cell based antibacterial activity (MIC) E. coli Imp4213 (BAS3023): membrane permeable imp mutant; for MIC: Escherichia coli, read-out: Whole cell based antibacterial activity (MIC) E. coli Imp4213 (BAS3023), membrane permeable imp mutant
[3] = system: E. coli (MG1655) WT; assay: MIC, microdilution in Mueller-Hinton Broth; details: wild type, read-out: Whole cell based antibacterial activity (MIC) E. coli (MG1655) WT
[4] = system: B. subtilis (ATCC 6633) WT; assay: MIC, microdilution in Mueller-Hinton Broth; details: read-out: Whole cell based antibacterial activity (MIC) B. subtilis (ATCC 6633) WT
[5] = system: M. tuberculosis (H37Rv); assay: MIC, microplate Alamar blue assay (MABA); type: cell-based; details: MABA, read-out: Whole cell based antibacterial activity (MIC) M. tuberculosis (H37Rv)
[6] = system: Vero cells; assay: Vero cell cytotoxicity assay; type: cell-based; details: for IC50: cytotoxicity
Method: (§2) MICs of compounds against M. tuberculosis were determined by a modified microplate Alamar blue assay (MABA). Vero cell cytotoxicity assay was performed as previously described.

[7] = molecular target: E. coli DNA gyrase (Escherichia coli (strain K12), UniProt P0AES4+P0AES6); assay: DNA gyrase supercoiling inhibition assay; type: biochemical; details: for IC50: supercoiling of relaxed DNA, read-out: Topoisomerase inhibitory activity (IC50) E. coli DNA gyrase (type IIA)
Method: as §1
The samples were incubated at 37° C. for 30 minutes before being terminated by the addition of a buffer containing 5% SDS, 0.25% bromophenol blue, and 25% glycerol. The reactions were then analyzed by agarose gel electrophoresis.

[8] = molecular target: Human topoisomerase I (Homo sapiens (Human), UniProt P11387); assay: Human topoisomerase I relaxation inhibition assay; type: biochemical; details: read-out: Topoisomerase inhibitory activity (IC50) Human topo I (type IB)
Method: Human topoisomerase I relaxation assays were carried out with 0.5 U of enzyme in reaction buffer supplied by the manufacturer. The enzyme was mixed with the indicated concentration of compound dissolved before 200 ng of supercoiled pBAD/Thio plasmid DNA was added in the same buffer, for a final volume of 20 μL. Following incubation at 37° C. for 30 minutes, the reactions were terminated with a buffer containing 5% SDS, 0.25% bromophenol blue, and 25% glycerol, and analyzed by agarose gel electrophoresis.
Human topoisomerase I and topoisomerase IIα were purchased from TopoGen (Buena vista, CO, USA).

[9] = molecular target: Human topoisomerase IIα (Homo sapiens (Human), UniProt P11388); assay: Human topoisomerase IIα decatenation inhibition assay; type: biochemical; details: kDNA decatenation; read-out: Topoisomerase inhibitory activity (IC50) Human topo IIα (type IIA)
Method: Human topoisomerase I and topoisomerase IIα were purchased from TopoGen (Buena vista, CO, USA). […] The reactions were then analyzed by electrophoresis in 1% agarose gels containing […] ethidium bromide before being photographed under UV light.

[10] = Vero cell cytotoxicity assay; type: cell-based; details: monkey
Method: as §2

[11] = molecular target: Mycobacterium tuberculosis topoisomerase I (Mycobacterium tuberculosis (strain ATCC 25618 / H37Rv), UniProt P9WG49); assay: Mycobacterium tuberculosis topoisomerase I inhibition; type: biochemical; details: Table 2; read-out: IC50 against Mycobacterium tuberculosis topoisomerase I
[12] = system: MRSA (staphylococcus aureus BAA44); assay: MIC against MRSA; type: cell-based
[13] = Table 3, E. coli topoisomerase I, single values set for ranges and bounds, read-out: IC50 (μM) used for CoMFA
[14] = relaxation of supercoiled plasmid DNA, read-out: Topoisomerase inhibitory activity (IC50) E. coli topo I (type IA)
[15] = Bacillus subtilis, ATCC6633, wild type
[16] = Mycobacterium tuberculosis, H37RV

Sequence of E. coli topoisomerase I (P06612 whole entry, looked up): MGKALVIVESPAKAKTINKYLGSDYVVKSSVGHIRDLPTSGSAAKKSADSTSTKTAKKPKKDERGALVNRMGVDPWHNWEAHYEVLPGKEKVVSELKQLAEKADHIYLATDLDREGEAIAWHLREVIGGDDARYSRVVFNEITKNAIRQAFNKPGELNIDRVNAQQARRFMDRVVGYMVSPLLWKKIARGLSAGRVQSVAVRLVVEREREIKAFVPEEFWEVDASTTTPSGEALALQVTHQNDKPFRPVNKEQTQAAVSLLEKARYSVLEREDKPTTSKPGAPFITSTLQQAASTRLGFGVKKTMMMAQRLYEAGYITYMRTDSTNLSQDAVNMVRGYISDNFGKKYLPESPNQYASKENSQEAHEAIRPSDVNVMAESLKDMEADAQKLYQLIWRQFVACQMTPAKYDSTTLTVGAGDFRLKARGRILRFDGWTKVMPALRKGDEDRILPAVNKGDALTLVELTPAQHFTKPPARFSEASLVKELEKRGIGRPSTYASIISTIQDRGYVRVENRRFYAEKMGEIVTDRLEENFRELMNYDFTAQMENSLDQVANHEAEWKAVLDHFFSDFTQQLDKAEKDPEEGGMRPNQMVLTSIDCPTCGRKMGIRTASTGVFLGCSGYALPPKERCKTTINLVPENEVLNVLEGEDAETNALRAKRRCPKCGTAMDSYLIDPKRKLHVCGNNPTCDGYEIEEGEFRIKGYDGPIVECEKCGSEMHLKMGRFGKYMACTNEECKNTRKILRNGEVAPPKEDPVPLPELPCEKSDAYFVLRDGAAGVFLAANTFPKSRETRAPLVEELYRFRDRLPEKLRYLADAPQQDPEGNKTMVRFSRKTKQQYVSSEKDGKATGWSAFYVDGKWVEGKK
Sequence of Human topoisomerase I (P11387 whole entry): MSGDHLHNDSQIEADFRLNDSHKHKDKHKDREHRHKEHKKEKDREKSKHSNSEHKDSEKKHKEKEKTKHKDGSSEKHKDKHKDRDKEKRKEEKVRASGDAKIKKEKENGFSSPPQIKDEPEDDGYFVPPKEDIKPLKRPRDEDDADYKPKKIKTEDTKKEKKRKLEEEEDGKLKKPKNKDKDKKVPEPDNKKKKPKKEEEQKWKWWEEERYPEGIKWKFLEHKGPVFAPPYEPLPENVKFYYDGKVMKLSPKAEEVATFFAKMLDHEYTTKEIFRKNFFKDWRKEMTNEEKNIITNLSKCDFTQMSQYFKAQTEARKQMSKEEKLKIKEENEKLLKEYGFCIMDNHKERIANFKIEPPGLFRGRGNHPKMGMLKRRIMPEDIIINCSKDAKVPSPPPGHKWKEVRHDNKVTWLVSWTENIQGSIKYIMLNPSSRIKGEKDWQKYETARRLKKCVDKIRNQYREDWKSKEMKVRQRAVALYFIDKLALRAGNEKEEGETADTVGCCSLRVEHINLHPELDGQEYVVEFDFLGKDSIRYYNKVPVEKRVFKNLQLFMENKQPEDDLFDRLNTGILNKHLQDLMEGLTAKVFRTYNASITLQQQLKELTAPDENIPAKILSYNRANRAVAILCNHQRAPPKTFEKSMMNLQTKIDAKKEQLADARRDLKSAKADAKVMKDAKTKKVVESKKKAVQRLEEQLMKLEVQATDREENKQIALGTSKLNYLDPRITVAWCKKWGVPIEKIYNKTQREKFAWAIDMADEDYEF
Sequence of Human topoisomerase IIα (P11388 whole entry): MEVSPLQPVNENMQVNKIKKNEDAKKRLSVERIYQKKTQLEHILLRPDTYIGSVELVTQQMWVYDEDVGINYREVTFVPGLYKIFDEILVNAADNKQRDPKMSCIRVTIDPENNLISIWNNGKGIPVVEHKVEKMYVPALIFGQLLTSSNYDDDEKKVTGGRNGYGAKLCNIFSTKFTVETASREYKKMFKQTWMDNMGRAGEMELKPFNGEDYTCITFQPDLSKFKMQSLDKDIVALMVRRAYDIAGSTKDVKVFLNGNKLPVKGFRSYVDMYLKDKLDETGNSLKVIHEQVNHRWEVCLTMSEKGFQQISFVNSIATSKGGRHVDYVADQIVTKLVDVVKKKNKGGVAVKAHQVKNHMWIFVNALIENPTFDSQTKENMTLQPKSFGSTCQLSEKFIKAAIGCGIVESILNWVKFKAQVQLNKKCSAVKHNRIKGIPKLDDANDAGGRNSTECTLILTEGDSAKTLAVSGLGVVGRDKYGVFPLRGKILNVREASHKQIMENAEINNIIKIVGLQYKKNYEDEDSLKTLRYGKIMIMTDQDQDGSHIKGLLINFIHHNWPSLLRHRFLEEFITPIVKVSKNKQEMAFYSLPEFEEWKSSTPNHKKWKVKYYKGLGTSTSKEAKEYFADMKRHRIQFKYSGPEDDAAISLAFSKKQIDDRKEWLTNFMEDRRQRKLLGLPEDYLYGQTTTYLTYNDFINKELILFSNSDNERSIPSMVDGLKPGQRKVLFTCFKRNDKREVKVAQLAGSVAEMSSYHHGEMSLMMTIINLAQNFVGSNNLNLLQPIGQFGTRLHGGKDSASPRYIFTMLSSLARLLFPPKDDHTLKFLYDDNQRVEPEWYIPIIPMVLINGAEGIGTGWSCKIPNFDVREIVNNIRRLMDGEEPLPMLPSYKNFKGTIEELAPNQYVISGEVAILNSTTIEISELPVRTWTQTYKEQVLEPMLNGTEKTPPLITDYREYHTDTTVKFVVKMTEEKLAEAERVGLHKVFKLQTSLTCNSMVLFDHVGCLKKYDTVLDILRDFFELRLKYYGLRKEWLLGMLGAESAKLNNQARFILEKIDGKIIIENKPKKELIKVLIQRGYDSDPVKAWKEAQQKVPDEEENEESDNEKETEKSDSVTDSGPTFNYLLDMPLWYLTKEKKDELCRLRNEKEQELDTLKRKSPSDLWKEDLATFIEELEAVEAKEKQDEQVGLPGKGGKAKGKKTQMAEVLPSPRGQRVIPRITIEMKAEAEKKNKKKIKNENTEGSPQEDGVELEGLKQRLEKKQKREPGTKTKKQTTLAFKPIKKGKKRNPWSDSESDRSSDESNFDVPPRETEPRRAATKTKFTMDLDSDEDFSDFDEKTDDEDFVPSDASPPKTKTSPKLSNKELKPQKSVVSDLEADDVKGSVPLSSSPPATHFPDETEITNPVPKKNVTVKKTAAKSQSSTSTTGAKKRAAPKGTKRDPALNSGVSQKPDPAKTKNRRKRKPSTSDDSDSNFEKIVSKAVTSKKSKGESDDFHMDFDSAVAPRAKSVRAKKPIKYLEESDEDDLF

Structure (SMILES): Nc1ccc2c(c1)Oc1c(N3CC[C@H](N)C3)c(F)cc3c(=O)c(C(=O)O)cn-2c13 [Compound 17a, (S)-9-amino-6-(3-aminopyrrolidin-1-yl)-S-fluoro-3-oxo-3H-pyrido[3,2,1-kl]phenoxazine-2-carboxylic acid]
- IC50 [1, 13]: 0.73 µM
- PIC50 (pIC50 = −log IC50) [1]: 6.14
- IC50 [1, 14]: 0.48 to 0.97 µM
- Whole cell based antibacterial activity (MIC) E. coli Imp4213 (BAS3023) [2]: 1.56 µM
- MIC [3]: >200 µM
- MIC ([4]; wild type): 6.25 µM (≈ 2.48 µg/mL)
- MIC [5]: >63.1 µM
- IC50 [6]: > 63.1 µM

Structure (SMILES): CC(=O)Nc1ccc2c(c1)Oc1c(F)c(F)cc3c(=O)c(C(=O)O)cn-2c13 [Compound 12, 9-acetamido-5,6-difluoro-3-oxo-3H-pyrido[3,2,1-kl]phenoxazine-2-carboxylic acid]
- PIC50 (pIC50 = −log IC50) [1]: 5.11
- MIC ([3]; Escherichia coli, MG1655): > 200 µM
- MIC [4, 15]: > 200 µM

Structure (SMILES): Nc1ccc2c(c1)Oc1c(N3CCOCC3)c(F)cc3c(=O)c(C(=O)O)cn-2c13 [Compound 11d, 9-Amino-5-fluoro-6-morpholino-3-oxo-3H-pyrido[3,2,1-kl]phenoxazine-2-carboxylic acid]
- PIC50 (pIC50 = −log IC50) [1]: 6.01
- IC50 [7]: 7.8 µM
- IC50 [8]: 15.6 µM
- IC50 [9]: 15.6 µM
- MIC [2]: 0.19 to 0.39 µM (≈ 0.0755 to 0.155 µg/mL)
- MIC ([3]; Escherichia coli, MG1655): > 200 µM
- MIC [5, 16]: 3.5 µM (≈ 1.39 µg/mL)
- selectivity ratio [10]: 7.1
- IC50 ([6]; Chlorocebus sabaeus, Vero): 24.7 µM
- IC50 [11]: 0.48 µM
- MIC [12]: 3 µM (≈ 1.19 µg/mL)

Structure (SMILES): N#Cc1ccc2c(c1)Oc1c(F)c(F)cc3c(=O)c(C(=O)O)cn-2c13 [Compound 7b, 9-Cyano-5,6-d fluoro-3-oxo-3H-pyrido[3,2,1-d]phenoxazine-2-carboxylic acid]
- IC50 [1, 13]: 31.2 µM
- PIC50 (pIC50 = −log IC50) [1]: 4.51
- IC50 [1, 14]: 31.2 µM
- Whole cell based antibacterial activity (MIC) E. coli Imp4213 (BAS3023) [2]: 200 µM
- MIC [3]: >200 µM
- MIC ([4]; wild type): >200 µM

Structure (SMILES): O=C(O)c1cn2c3c(c(N4CCNCC4)c(F)cc3c1=O)Oc1cc([N+](=O)[O-])ccc1-2 [Compound 10b, 5-Fluoro-9-nitro-3-oxo-6-(piperazin-1-yl)-3H-pyrido[3,2,1-kl]phenoxazine-2-carboxylic acid]
- PIC50 (pIC50 = −log IC50) [1]: 5.41
- MIC ([3]; Escherichia coli, MG1655): > 200 µM
- MIC [4, 15]: > 200 µM

Structure (SMILES): Nc1ccc2c(c1)Oc1c(NC34CC5CC(CC(C5)C3)C4)c(F)cc3c(=O)c(C(=O)O)cn-2c13 [Compound 11f, 6-(((3s, 5s, 7s)-Adamantan-1-yl)amino)-9-amino-5-fluoro-3-oxo-3H-pyrido[3,2,1-kl]phenoxazine-2-carboxylic acid]
- IC50 [1, 13]: 5.85 µM
- PIC50 (pIC50 = −log IC50) [1]: 5.23
- IC50 [1, 14]: 3.9 to 7.8 µM
- Whole cell based antibacterial activity (MIC) E. coli Imp4213 (BAS3023) [2]: 3.12 µM
- MIC [3]: >200 µM
- MIC ([4]; wild type): 12.5 µM (≈ 5.77 µg/mL)
- MIC [5]: 38.4 µM (≈ 17.7 µg/mL)
- SI (Selectivity index = cytotoxic IC50 against Vero cells/MIC against M. tuberculosis) [6]: 0.8
- IC50 [6]: 30.7 µM

Structure (SMILES): O=C(O)c1cn2c3c(c(F)c(F)cc3c1=O)Oc1cc([N+](=O)[O-])c(Cl)cc1-2 [Compound 7e, 10-Chloro-5,6-difluoro-9-nitro-3-oxo-3H-pyrido[3,2,1-kl]phenoxazine-2-carboxylic acid]
- PIC50 (pIC50 = −log IC50) [1]: 4.51
- selectivity toward topoisomerase I over DNA gyrase [7]: 2 fold
- IC50 [7]: 62.5 µM
- IC50 [8]: 31.2 µM
- IC50 [9]: 125 µM
- MIC [2]: 0.39 µM (≈ 0.154 µg/mL)
- MIC ([3]; Escherichia coli, MG1655): 50 µM (≈ 19.7 µg/mL)
- MIC [5, 16]: 29 µM (≈ 11.4 µg/mL)
- selectivity ratio [10]: > 4.4
- IC50 ([6]; Chlorocebus sabaeus, Vero): > 127 µM
